Data as given in PubChem BioAssay AID1159563 (GlaxoSmithKline (GSK), 2015).
Active and inactive are the calls of the source. How the calls were made is not given here.

System: HepG2 cytotoxicity
Test: HepG2 cell cytotoxicity, cytotoxicity control (AID 1159563)

Structure (SMILES) | IC50
COc1ccc2ncc(F)c(NC(=O)C3(O)CCC(NCc4ccc5c(c4)OCCO5)CC3)c2n1 (stereo not given) | 50 µM
CCCC(=O)N(Cc1ccccn1)c1nc2ccccc2s1 | > 100 µM (inactive)
Cc1ccccc1CNc1cc(C2CC2)nc(-c2nccn2C)n1 | 16 µM
Cc1c(C(C)NC(=O)Nc2cccc(Cl)c2)sc2ncnn12 (stereo not given) | > 100 µM (inactive)
CC(=O)Nc1ccc(-c2csc(NC(=O)c3ccc([N+](=O)[O-])s3)n2)cc1 | 50 µM
Cn1ccnc1-c1nc(NCc2ccccc2Cl)cc(C2CC2)n1 | 20 µM
Cn1c(CN2CCN(c3ncc(C(F)(F)F)cc3Cl)CC2)nc2ccncc21 | > 100 µM (inactive)
COc1ncc(-c2ccc3ncnc(N4CCOCC4)c3c2)cc1NS(C)(=O)=O | > 100 µM (inactive)
CNc1cc(C)nc(C2CN(C(=O)c3n[nH]c4ccccc34)CCO2)c1 (stereo not given) | > 100 µM (inactive)
Clc1ccc(CN2CCN(C3=NCCN3)CC2)cc1Cl | 63 µM
Clc1ccc(C(CC2CCCCO2)Cn2cncn2)c(Cl)c1 (stereo not given) | > 100 µM (inactive)
O=C(CCCn1cnc([N+](=O)[O-])n1)Nc1cccc(Cl)c1 | > 100 µM (inactive)
COc1cccc(-c2cc(C(F)(F)F)nc(-n3ccc([N+](=O)[O-])n3)n2)c1 | > 100 µM (inactive)
Nc1nc(-c2ccccc2)cc(-c2nc3ncccc3[nH]2)n1 | 40 µM
O=C(NCc1nnc2n1CCCCC2)c1ccc(-c2ccc(F)cc2)o1 | > 100 µM (inactive)
O=C(CCc1ccc(-c2ccccc2)o1)N1CCN(c2ccc(O)cc2)CC1 | > 100 µM (inactive)
CNc1cncc(C2CCCN2C(=O)Cc2ccc3ccccc3c2)n1 (stereo not given) | > 100 µM (inactive)
CC(C(=O)Nc1ccc(Br)cc1)N1CCN(c2ccc([N+](=O)[O-])cc2)CC1 (stereo not given) | > 100 µM (inactive)
c1ccc(-c2nc(NC3CCCCC3)cc(C3CC3)n2)nc1 | 40 µM
Cc1nc2nc(C)c(Cc3ccc(C(C)C)cc3)c(=O)n2[nH]1 | > 100 µM (inactive)
O=C(CSc1ccc(-c2ccccn2)nn1)Nc1ccc(Cl)cc1 | > 100 µM (inactive)
O=C(NCCNc1noc(-c2ccc([N+](=O)[O-])cc2)n1)c1ccc(Cl)cc1 | > 100 µM (inactive)
O=C(CN1CCN(S(=O)(=O)c2cccc([N+](=O)[O-])c2)CC1)Nc1ccc(Oc2ccccc2)cc1 | > 100 µM (inactive)
CCc1nn(-c2ncc(F)c(NC(C)C)n2)c(N)c1C1CCCCC1 | 32 µM
N#Cc1c(Oc2cccc(Cl)c2)cccc1[N+](=O)[O-] | 25 µM

Structure (SMILES) | IC50
CCc1cccc(-n2nc(OCC(=O)NC3CCCC3)c3cccnc32)c1 | > 100 µM (inactive)
COc1ccc(NS(=O)(=O)c2cccc(NC(=O)c3cc(F)cc(F)c3)c2)cc1 | 32 µM
Cc1cccnc1NC(=O)c1cccc(OCc2c(C)noc2C)c1 | > 100 µM (inactive)
CCC(c1ccc(F)cc1)n1cncc1-c1cnn(C)c1 (stereo not given) | > 100 µM (inactive)
O=C(NCCCn1cnc2ccccc21)c1ccc(NC(=O)c2ccco2)cc1 | 16 µM
O=C(Cn1cnc([N+](=O)[O-])n1)Nc1ccc(Cl)cc1C(=O)c1ccccc1 | > 100 µM (inactive)
Cc1nc(-c2ccncc2)ncc1C(C)NC(=O)c1ccc(Cl)s1 (stereo not given) | > 100 µM (inactive)
COc1ccc2ncc(=O)n(CCN3CCOC(CNCc4ccc(C(F)(F)F)cc4F)C3)c2n1 (stereo not given) | > 100 µM (inactive)
O=C(NC(c1ccc(Cl)cc1)c1cnccn1)C1CCN(C(=O)Nc2cccc(C(F)(F)F)c2)CC1 (stereo not given) | > 100 µM (inactive)
COc1ccc(C2CC(c3ccc(NS(C)(=O)=O)cc3)=NN2C(=O)c2cccs2)cc1OC (stereo not given) | > 100 µM (inactive)
CNC(=O)C1Cc2ccccc2N1C(=O)COc1cccc(OC)c1 (stereo not given) | > 100 µM (inactive)
CCOC(=O)c1noc(N)c1-c1ccccc1 | > 100 µM (inactive)
N#Cc1ccc(S(=O)(=O)N2CCC3(CCN(c4ccccc4)C3=O)CC2)cc1 | > 100 µM (inactive)
COc1ccc2nc(N(Cc3cccnc3)C(=O)C3CCC3)sc2c1 | > 100 µM (inactive)
COc1ccc2nccc([C@H](O)CN3CC[C@H](NC(=O)c4ccc(Br)cc4)[C@@H](O)C3)c2n1 | > 100 µM (inactive)
O=C1COC(c2ccccc2)(c2ccccc2)CN1C1CCN(Cc2ccc(-n3ccnc3)cc2)CC1 | 50 µM
Cc1c(CNC(=O)c2ccc(Cn3cc(Cl)c([N+](=O)[O-])n3)cc2)cnn1C | > 100 µM (inactive)
OC1CCC(Nc2nccc(-c3sc(C4CCOCC4)nc3-c3ccc(F)c(F)c3)n2)CC1 (stereo not given) | 25 µM
CCOc1ccc2nc(NC(=O)c3ccc([N+](=O)[O-])s3)sc2c1 | 32 µM
CC(Cn1ccnc1)NC(=O)C1CC1c1cccc(Cl)c1Cl (stereo not given) | > 100 µM (inactive)
Fc1ccc(OC2CC(NCc3cccc4cn[nH]c34)C2)cc1C(F)(F)F (stereo not given) | 25 µM
CC(C)C[C@H](NC(=O)c1csc(-c2cccs2)n1)C(=O)NC1(C#N)CC1 | > 100 µM (inactive)
NC(=O)c1cc(F)ccc1Nc1nc(NC2CCC(O)CC2)ncc1Cl (stereo not given) | > 100 µM (inactive)
Cc1nn(-c2nc(N)nc(-c3ccccn3)n2)c(C)c1Cc1ccccc1 | > 100 µM (inactive)
COc1ccc(C2CC(c3ccccc3Cl)=NN2C(=O)CNC(=O)C2CCC2)cc1 (stereo not given) | > 100 µM (inactive)
